One test concerns BJeLR (HRAS^G12V) cells. Description: Gene expression analysis by RT-qPCR. It is filed as cell-based. On the procedure:
FIG. 22A-FIG. 22D show BJeLR cells were treated with DMSO, 31 MEW44 at 5 μM and/or 25 μM alongside BJHLT treated with DMSO for one hour. Cells were lysed and the RNA was extracted, converted to cDNA and quantified by qPCR.
Gene Expression Analysis by RT-qPCR
Cells from six-well plates were trypsinized and centrifuged at 3,000 rpm for 3 minutes. The cell pellet was then lysed and the RNA was extracted using QIAshreader and RNAeasy extraction kits (QIAGEN) according to the manufacturer's protocol. 2 micrograms of RNA from each sample was then converted to cDNA using the TaqMan RT Kit (Applied Biosystems). Primers for Quantitative PCR (qPCR) were designed with Primer Express. qPCR was performed using Power SYBR Green Master Mix (Applied Biosystems) in a 96-well format, in triplicate, using an Applied Biosystems 7300 Cycler set to absolute quantification. Expression changes were computed using the ΔΔCt method with GAPDH as an internal reference gene. The primers used were as follows: urokinase-type plasminogen activator (uPA) Forward 5′ […] 3′ (SEQ ID NO: 54), reverse 5′ […] 3′ (SEQ ID NO: 55); matrix metalloprotease 9 (MMP9) forward 5′ […] 3′ (SEQ ID NO: 56), reverse 5′ […] 3′ (SEQ ID NO: 57); lactate dehydrogenase (LDH) forward 5′ […] 3′ (SEQ ID NO: 58), reverse 5′ […] 3′ (SEQ ID NO: 59); CMYC forward 5′ […] 3′ (SEQ ID NO: 60), reverse 5′ […] 3′ (SEQ ID NO: 61).
In general terms: Real-time PCR tracks product formation cycle by cycle.

Test [1] deals with Mouse embryonic fibroblasts (MEFs), null Hras and Nras, floxed Kras. Briefly: Growth inhibition of MEFs with floxed Kras locus. Conditions: up to 5 μM, 24 hours, vs DMSO. It is filed as cell-based. On the procedure:
In parallel, cells were treated with DMSO or 4OHT at 600 nM for 6 days. […] Cells were then lysed and treated with a pro-fluorescent caspase 3/7 substrate (rhodamine 110 bis-N-CBZ-L-aspartyl-L-gluramyl-L-valyl-aspartic acid amide) for 16 hours and measured.
All cell culture assays were incubated at 37° C., 5% CO2 in media containing Dulbecco's Modified Eagle Medium (DMEM) with 10% fetal bovine serum (FBS) and 1% penicillin-streptomycin (PS). 384-well format for EC50 determination: cells were trypsinized, counted, and seeded into 384-well plates at 1,000 cells/well. After 12-16 hours, compounds (as 50 mM stocks in DMSO) were arrayed in an 8- or 16-point dilution series in 384-well polypropylene plates. Compound solutions were transferred at a 1:5 dilution into the assay plates. After 48 hours, a 50% Alamar blue solution was added to a final concentration of 10% Alamar blue. After 6 hours of incubation, fluorescence intensity was determined using a Victor3 plate reader (Perkin Elmer) with a 535 nm excitation filter and a 590 nm emission filter. All compound measurements were performed in triplicate. For experiments performed in 6-well format, cells were trypsinized, counted, and seeded into 6-well plates at 200,000 cells per well 16 h prior to use. […] After 24 hours, cells were trypsinized and viability was determined using Trypan Blue exclusion assay. […]

The test system of test [2] is Mia-Paca2, NCI-H441, NCI-H23, BJeLR and HT1080 cells. Description: Expression of the mutant RAS isoform by qPCR. Conditions: 4 and 24 hours, 10 μM. Type of test: cell-based. The source says: Samples were normalized to DMSO treatment.
In addition to altering genes associated with RAS activation, it was hypothesized that upon inhibitor treatment, cells would attempt to compensate by expressing additional RAS proteins.

Another test has as its target T1, KRAS^G12D D38A (Homo sapiens, UniProt P01116, D38A/G12D).
T1 construct: His6 (N); made in house
Description: Microscale thermophoresis on binding-site mutant KRAS^G12D D38A. The note with it: for Kd: MST. On the procedure: Mutagenesis of the KRAS^G12D plasmid was performed using a QuikChange XL site-directed mutagenesis kit from Agilent technologies, according to the manufacturer's protocol. Primers were designed using the Agilent QuikChange Primer Design application and purchased from Integrated DNA Technologies. KRAS^G12D D38A forward primer 5′ ATATGATCCAACAATAGAGGCTTCCTACAGGAAGCAAGTAG 3′ (SEQ ID NO: 66), KRAS^G12D D38A reverse primer 5′ CTACTTGCTTCCTGTAGGAAGCCTCTATTGTTGGATCATAT 3′ (SEQ ID NO: 67), KRAS^G12D I36N forward primer 5′ CATTTTGTGGACGAATATGATCCAACAAATGAGGATTCCTACAGG 3′ (SEQ ID NO: 68), KRAS^G12D I36N reverse primer 5′ CCTGTAGGAATCCTCATTTGTTGGATCATATTCGTCCACAAAATG 3′ (SEQ ID NO: 69). DNA sequencing was performed to confirm the correct amino acid sequence of the construct (GeneWiz, Inc.).
KRAS^G12D (250 μM) in 25 mM HEPES, 100 mM sodium chloride, 2 mM TCEP with 20 mM EDTA and 1 mM GppNHp was shaken at 220 rpm at 30° C. to remove the endogenous nucleotide, The solution was placed on ice for 2 minutes prior to the addition of 65 mM MgCl2. After an additional 10 minutes incubation on ice, 200 uL of a 10 uM solution of KRAS^G12D was combined with 200 uL of a 20 uM solution of NT-647-NHS-ester dye (from a 652.4 μM stock). The protein/dye mixture was rotated at 4° C. for 30 minutes, before being separated from the excess dye and buffer exchanged into 25 mM Tris, 100 mM sodium chloride, 2 mM TCEP, and 5 mM MgCl2 via a nap-5 column. The test compounds were arrayed across a 16-point dilution series consisting of 1.5% DMSO with 25 mM Tris, 100 mM NaCl, 2 mM TCEP, 5 mM MgCl2 and 0.05% tween-20. Thermophoretic movement of the fluorescently labeled protein with the inhibitors was performed using a Monolith NT.115 (Nanotemper Technologies). RALA and RHOA were purchased commercially from Abcam (RALA CN:ab102555, RHOA CN:ab101594).
A set of 45 of the closest matches (ranging from 0.85-0.97 Tanimoto coefficient) were synthesized (based on Scheme 2 with appropriate modifications) and tested for their ability to bind to KRAS^G12D by differential scanning fluorimetry.

T1 sequence (P01116 1-169 isoform P01116-2 G12D/D38A): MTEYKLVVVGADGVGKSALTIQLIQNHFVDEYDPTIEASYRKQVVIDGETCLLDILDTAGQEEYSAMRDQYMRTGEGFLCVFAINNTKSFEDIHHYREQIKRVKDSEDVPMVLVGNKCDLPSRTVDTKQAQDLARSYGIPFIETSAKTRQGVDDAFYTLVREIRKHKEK

Consider `NC1(C(=O)NCCCn2cc(-c3ccc(OC(F)(F)F)cc3)c3cc(CN4CCN(Cc5c(Cl)cccc5Cl)CC4)ccc32)CCNCC1` [Compound 31MEW44, 4-amino-N-(3-(5-((4-(2,6-dichlorobenzyl)piperazin-1-yl)methyl)-3-(4-(trifluoromethoxy)phenyl)-1H-indol-1-yl)propyl)piperidine-4-carboxamide], for which, in the test with BJeLR (HRAS^G12V) cells, the “CMYC mRNA” value is “dose-dependent reduction in CMYC mRNA”; the LDH expression entry is recorded as “decreased these elevated levels of LDH, dose-dependently”; the MMP9 expression result is given as “Downregulation of MMP9 expression”. Further, in the test with BJeLR (HRAS^G12V) cells (5 μM and 25 μM), the “DUSP6 and IDH2 expression profile” value is “profile characteristic of decreased activation of RAS signaling”; the uPA expression result was “dose-dependent decrease in uPA expression”. The molecule also yielded a growth inhibition in test [1] of 75%. For the same molecule, in test [2], the RAS expression result was “time-dependent increase of RAS expression”. Further, the “loss in binding affinity” value at KRAS^G12D D38A (I36N and D38A mutants vs KRAS^G12D) was in the range of 3.5 to 21 fold. The affinity on KRAS^G12D D38A (31MEW44, FIG. 14H), expressed as Kd, was 33 µM. Moreover, the Kd at KRAS^G12D D38A (31MEW44, first experiment) was 1.9 µM. Besides, the “loss in binding affinity” value on KRAS^G12D D38A (binding-site mutants D38A and I36N) is 5-10 fold.

Broadly, the Kd is the free concentration of one partner at which half of the binding sites on the other are occupied at equilibrium, for simple one-to-one binding. Lower therefore signals tighter binding.

The values are drawn from patent US9926293B2, “Multivalent RAS binding compounds” (THE TRUSTEES OF COLUMBIA UNIVERSITY IN THE CITY OF NEW YORK, priority 2014, dated 2018).
